In paper PMC9841521, “Subnanomolar Affinity and Selective Antagonism at α7 Nicotinic Receptor by Combined Modifications of 2-Triethylammonium Ethyl Ether of 4-Stilbenol (MG624)” (Journal of Medicinal Chemistry, 2022):

Molecular target: T1, human α3β4-nAChR subtype (Homo sapiens, UniProt P30926+P32297)
T1 construct: expressed in transfected cells
Experiment: Competition binding with [3H]epibatidine, membranes of SH-EP1 cells stably transfected with α3 and β4
Details: human α3β4 expressed in SH-EP1 cells; confidence interval in parentheses; read-out: α3β4-nAChR [3H]-Epi Ki

| SMILES | Ki |
| --- | --- |
| CC[N+](CC)(CC)CCOc1ccc(/C=C/c2ccc(O)cc2)cc1 [Compound 20, (E)-N,N,N-Triethyl-2-(4-(4-hydroxystyryl)phenoxy)ethan-1-aminium Iodide] | 0.873 µM |
| CC[N+](CC)(CC)CCOc1ccc(/C=C/c2cc(OC)cc(OC)c2)cc1 [Compound 21] | 0.676 µM |
| CC[N+](CC)(CC)CCOc1ccc(/C=C/c2cc(O)cc(O)c2)cc1 [Compound 22, (E)-2-(4-(3,5-Dihydroxystyryl)phenoxy)-N,N,N-triethylethan-1-aminium Iodide] | 0.793 µM |
| CC[N+](CC)(CC)CCOc1ccc(OCc2ccccc2)cc1 [Compound 23, 2-(4-(Benzyloxy)phenoxy)-N,N,N-triethylethan-1-aminium Iodide] | 4.7 µM |
| CC[N+](CC)(CC)CCOc1ccc(NC(=O)c2ccccc2)cc1 [Compound 25, 2-(4-Benzamidophenoxy)-N,N,N-triethylethan-1-aminium Iodide] | 1.07 µM |
| CC[N+](CC)(CC)CCOc1ccc(C(=O)Nc2ccccc2)cc1 [Compound 26, N,N,N-Triethyl-2-(4-(phenylcarbamoyl)phenoxy)ethan-1-aminium Iodide] | 0.113 µM |

Molecular target: T2, human α4β2-nAChR subtype (Homo sapiens, UniProt P17787+P43681)
T2 construct: expressed in transfected cells; gift of Dr. Jon Lindstrom
Experiment: Competition binding with [3H]epibatidine, membranes of HEK 293 cells stably transfected with α4 and β2
Details: human α4β2 expressed in HEK 293 cells; confidence interval in parentheses; read-out: α4β2-nAChR [3H]-Epi Ki

| SMILES | Ki |
| --- | --- |
| CC[N+](CC)(CC)CCOc1ccc(/C=C/c2ccc(O)cc2)cc1 [Compound 20, (E)-N,N,N-Triethyl-2-(4-(4-hydroxystyryl)phenoxy)ethan-1-aminium Iodide] | 9.82 µM |
| CC[N+](CC)(CC)CCOc1ccc(/C=C/c2cc(OC)cc(OC)c2)cc1 [Compound 21] | 1.2 µM |
| CC[N+](CC)(CC)CCOc1ccc(/C=C/c2cc(O)cc(O)c2)cc1 [Compound 22, (E)-2-(4-(3,5-Dihydroxystyryl)phenoxy)-N,N,N-triethylethan-1-aminium Iodide] | 7.24 µM |
| CC[N+](CC)(CC)CCOc1ccc(NC(=O)c2ccccc2)cc1 [Compound 25, 2-(4-Benzamidophenoxy)-N,N,N-triethylethan-1-aminium Iodide] | 4.5 µM |
| CC[N+](CC)(CC)CCOc1ccc(C(=O)Nc2ccccc2)cc1 [Compound 26, N,N,N-Triethyl-2-(4-(phenylcarbamoyl)phenoxy)ethan-1-aminium Iodide] | 23 µM |

Molecular target: human α7-nAChR (Homo sapiens, UniProt P36544)
Experiment: Two-electrode voltage clamp, antagonism of currents activated by 1 mM ACh, test compound coapplied, X. laevis oocytes
Format: cell-based
Details: coapplied with 1 mM ACh, up to 100 μM; 95% confidence interval in parentheses; NA = not inhibited even at 100 μM; read-out: α7 IC50 (AUC)

| SMILES | IC50 |
| --- | --- |
| CC[N+](CC)(CC)CCOc1ccc(NC(=O)c2ccccc2)cc1 [Compound 25, 2-(4-Benzamidophenoxy)-N,N,N-triethylethan-1-aminium Iodide] | 26.9 µM |
| CC[N+](CC)(CC)CCOc1ccc(C(=O)Nc2ccccc2)cc1 [Compound 26, N,N,N-Triethyl-2-(4-(phenylcarbamoyl)phenoxy)ethan-1-aminium Iodide] | > 100 µM |

Same assay, conditions: coapplied with 1 mM ACh, up to 100 μM; 95% confidence interval in parentheses; NA = not inhibited even at 100 μM; read-out: α7 IC50 (peak current)

| SMILES | IC50 |
| --- | --- |
| CC[N+](CC)(CC)CCOc1ccc(NC(=O)c2ccccc2)cc1 [Compound 25, 2-(4-Benzamidophenoxy)-N,N,N-triethylethan-1-aminium Iodide] | 25.7 µM |
| CC[N+](CC)(CC)CCOc1ccc(C(=O)Nc2ccccc2)cc1 [Compound 26, N,N,N-Triethyl-2-(4-(phenylcarbamoyl)phenoxy)ethan-1-aminium Iodide] | > 100 µM |

Same assay, conditions: supplementary CSV; read-out: alpha7 nAChR IC50 (AUC)

| SMILES | IC50 |
| --- | --- |
| CC[N+](CC)(CC)CCOc1ccc(C(=O)Nc2ccccc2)cc1 [Compound 26, N,N,N-Triethyl-2-(4-(phenylcarbamoyl)phenoxy)ethan-1-aminium Iodide] | > 100 µM |

Same assay, conditions: supplementary CSV; read-out: alpha7 nAChR IC50 (peak current)

| SMILES | IC50 |
| --- | --- |
| CC[N+](CC)(CC)CCOc1ccc(C(=O)Nc2ccccc2)cc1 [Compound 26, N,N,N-Triethyl-2-(4-(phenylcarbamoyl)phenoxy)ethan-1-aminium Iodide] | > 100 µM |

Molecular target: T3, human α9α10-nAChR (Homo sapiens, UniProt Q9GZZ6+Q9UGM1)
T3 construct: expressed in transfected cells; host or cells: Xenopus laevis oocytes (cRNA injection, α9:α10 9:1)
Experiment: Two-electrode voltage clamp, antagonism of currents activated by 1 mM ACh, test compound coapplied, X. laevis oocytes (α9:α10 cRNA 9:1)
Format: cell-based
Details: coapplied with 1 mM ACh, up to 100 μM; 95% confidence interval in parentheses

| SMILES | IC50 |
| --- | --- |
| CC[N+](CC)(CC)CCOc1ccc(NC(=O)c2ccccc2)cc1 [Compound 25, 2-(4-Benzamidophenoxy)-N,N,N-triethylethan-1-aminium Iodide] | 115 µM |
| CC[N+](CC)(CC)CCOc1ccc(C(=O)Nc2ccccc2)cc1 [Compound 26, N,N,N-Triethyl-2-(4-(phenylcarbamoyl)phenoxy)ethan-1-aminium Iodide] | 75.9 µM |
